Where a name gives a salt, the structure may show the parent alone.

In the first experiment the target is T1, rat NaPi-2b (Rattus norvegicus, UniProt Q9JJ09).
T1 construct: expressed in transfected cells; host or cells: Xenopus oocytes injected with cRNA
T1 sequence (Q9JJ09 1-695): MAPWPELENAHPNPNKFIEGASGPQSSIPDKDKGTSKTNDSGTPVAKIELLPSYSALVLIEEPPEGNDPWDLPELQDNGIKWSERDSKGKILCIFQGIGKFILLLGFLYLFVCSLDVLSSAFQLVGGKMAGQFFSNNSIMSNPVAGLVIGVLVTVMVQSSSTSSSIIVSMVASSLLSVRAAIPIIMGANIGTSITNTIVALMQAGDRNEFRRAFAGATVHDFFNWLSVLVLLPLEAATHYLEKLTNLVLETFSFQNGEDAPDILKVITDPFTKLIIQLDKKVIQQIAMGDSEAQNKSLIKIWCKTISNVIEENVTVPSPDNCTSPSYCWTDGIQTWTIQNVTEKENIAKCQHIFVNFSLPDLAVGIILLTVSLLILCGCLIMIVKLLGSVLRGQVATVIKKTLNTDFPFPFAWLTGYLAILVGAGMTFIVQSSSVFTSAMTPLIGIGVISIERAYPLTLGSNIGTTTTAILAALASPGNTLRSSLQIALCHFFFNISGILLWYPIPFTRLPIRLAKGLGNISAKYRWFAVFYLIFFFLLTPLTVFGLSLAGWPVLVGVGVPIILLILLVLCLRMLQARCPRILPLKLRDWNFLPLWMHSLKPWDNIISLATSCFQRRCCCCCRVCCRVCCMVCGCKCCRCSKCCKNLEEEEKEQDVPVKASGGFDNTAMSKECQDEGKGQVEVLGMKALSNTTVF
Description: Sodium-dependent phosphate uptake of Xenopus oocytes which expressed NaPi-2b (32P). The following applies: Xenopus oocytes expressing rat NaPi-2b, 32P radioactive phosphorus; read-out: IC50 (phosphate uptake inhibitory activity). It is filed as cell-based. In short, it runs like this:
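Oocytes injected with rat NaPi-2b cRNA, cultured 2 d, then 32P uptake measured with compound. Values: % inhibition at 300 and 100 μM, both from one inhibition curve.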
In the case of `CC(O)CN(Cc1cccc(C(=O)Nc2ccc(F)cc2C(=O)N/N=C/c2ccc(Cl)c(C(F)(F)F)c2)c1)CC(C)O` (centres unmarked) [Compound 853, 3-{[Bis-(2-hydroxy-propyl)-amino]-methyl}-N-[2-(4-chloro-3-trifluoromethyl-benzylidene-hydrazinocarbonyl)-4-fluoro-phenyl]-benzamide; hydrochloride], the half-inhibitory concentration (IC50) came to 2.14 µM.
Consider `O=C(Nc1ccc(Cl)cc1C(=O)N/N=C/c1ccc(Cl)c(C(F)(F)F)c1)c1cccc(CN(CCO)CCO)c1` [Compound 407, 3-{[Bis-(2-hydroxy-ethyl)-amino]-methyl}-N-[4-chloro-2-(4-chloro-3-trifluoromethyl-benzylidene-hydrazinocarbonyl)-phenyl]-benzamide], for which the IC50 was 0.57 µM.
Still for that read-out and setting: under `C/C(=N\NC(=O)c1cc(Cl)ccc1NC(=O)c1cccnc1)c1ccc(C)cc1` [Compound 217, N-[4-Chloro-2-(1-p-toluyl-ethylidene-hydrazinocarbonyl)-phenyl]-nicotinamide] stands 11.2 µM; under `COc1ccc(C(=O)Nc2ccccc2C(=O)N/N=C/c2cc(C(F)(F)F)ccc2F)cc1OC` [Compound 44, N-[2-(2-Fluoro-5-trifluoromethyl-benzylidene-hydrazinocarbonyl)-phenyl]-3,4-dimethoxy-benzamide], 4.71 µM.
On the same count and under the same terms, the value for `Cc1ccc(/C=N/NC(=O)c2scc(C)c2NC(=O)c2cccc(CN3CCC(N4CCCCC4)CC3)c2)cc1C` [Compound 345, 3-[1,4′]Bipiperidinyl-1′-ylmethyl-N-[2-(3,4-dimethyl-benzylidene-hydrazinocarbonyl)-4-methyl-thiophen-3-yl]-benzamide] was 130 µM.
As to `COCCOc1cc(NC(=O)c2cccc(CSCC(O)CO)c2)c(C(=O)N/N=C/c2ccc(Cl)c(C(F)(F)F)c2)cc1OCCOC` (centres unmarked) [Compound 1016, N-[2-(4-Chloro-3-trifluoromethyl-benzylidene-hydrazinocarbonyl)-4,5-bis-(2-methoxy-ethoxy)-phenyl]-3-(2,3-dihydroxy-propylsulfanylmethyl)-benzamide], the IC50 is 9.23 µM.
Take `O=C(Nc1ccc(Br)cc1C(=O)N/N=C/c1cccc(F)c1)c1ccc(CSCCO)cc1` [Compound 261, N-[4-Bromo-2-(3-fluoro-benzylidene-hydrazinocarbonyl)-phenyl]-4-(2-hydroxy-ethylsulfanylmethyl)-benzamide]: the IC50 is less than 3 µM.
As to `Cc1cccc(/C=N/NC(=O)c2cc(Cl)ccc2NC(=O)c2cccc(CSc3nc[nH]n3)c2)c1` [Compound 391, N-[4-Chloro-2-(3-methyl-benzylidene-hydrazinocarbonyl)-phenyl]-3-(1H-[1,2,4]triazol-3-ylsulfanylmethyl)-benzamide], the IC50 amounted to 1.02 µM.
Take `Cc1cccc(/C=N/NC(=O)c2cc(Cl)ccc2NC(=O)c2cccc(CN(C)CCO)c2)c1` [Compound 396, N-[4-Chloro-2-(3-methyl-benzylidene-hydrazinocarbonyl)-phenyl]-3-{[(2-hydroxy-ethyl)-methyl-amino]-methyl}-benzamide]: the IC50 was 8.19 µM.
As to `O=C(Nc1ccc(Br)cc1C(=O)N/N=C/c1cccc(F)c1)c1ccc(CN2CCN(CCO)CC2)cc1` [Compound 320, N-[4-Bromo-2-(3-fluoro-benzylidene-hydrazinocarbonyl)-phenyl]-4-[4-(2-hydroxy-ethyl)-piperazin-1-ylmethyl]-benzamide], the IC50 turned out to be 4.09 µM.
The same measure, in the same setting: the value for `O=C(Nc1ccc(N2CCCCC2)cc1C(=O)N/N=C/c1cccc(F)c1)c1cccc(CN2CCC(O)CC2)c1` [Compound 873, N-[2-(3-Fluoro-benzylidene-hydrazinocarbonyl)-4-piperidin-1-yl-phenyl]-3-(4-hydroxy-piperidin-1-ylmethyl)-benzamide] was 0.66 µM; that for `COc1ccc(/C=N/NC(=O)c2c(NC(=O)c3cccc(CN4CCC(CO)CC4)c3)sc3c2CCC3)cc1` [Compound 821, 3-(4-Hydroxymethyl-piperidin-1-ylmethyl)-N-[3-(4-methoxy-benzylidene-hydrazinocarbonyl)-5,6-dihydro-4H-cyclopenta[b]thiophen-2-yl]-benzamide] was 17.9 µM; that for `CCN(CC)CCN(C)Cc1cccc(C(=O)Nc2ccc(OC)cc2C(=O)N/N=C/c2ccc(OC)cc2)c1` [Compound 1024, 3-{[(2-Diethylamino-ethyl)-methyl-amino]-methyl}-N-[4-methoxy-2-(4-methoxy-benzylidene-hydrazinocarbonyl)-phenyl]-benzamide] was 3.94 µM.
As to `Cc1ccc(/C=N/NC(=O)c2c(NC(=O)c3cccc(CN4CCC(CO)CC4)c3)sc3c2CCC3)cc1C` [Compound 816, N-[3-(3,4-Dimethyl-benzylidene-hydrazinocarbonyl)-5,6-dihydro-4H-cyclopenta[b]thiophen-2-yl]-3-(4-hydroxymethyl-piperidin-1-ylmethyl)-benzamide], the IC50 was 14.8 µM.
`COc1cc(OC)cc(C(=O)Nc2ccccc2C(=O)N/N=C/c2ccc(C)c(C)c2)c1` [Compound 93, N-[2-(3,4-Dimethyl-benzylidene-hydrazinocarbonyl)-phenyl]-3,5-dimethoxy-benzamide]: the IC50 came to 11 µM.
Regarding `COc1ccc(/C=N/NC(=O)c2c(NC(=O)c3cccc(CN(CC(C)O)CC(C)O)c3)sc3ccccc23)cc1` (centres unmarked) [Compound 797, 3-{[Bis-(2-hydroxy-propyl)-amino]-methyl}-N-[3-(4-methoxy-benzylidene-hydrazinocarbonyl)-benzo[b]thiophen-2-yl]-benzamide], the IC50 was determined as 3.39 µM.
On to `COc1ccc(C(=O)Nc2ccccc2C(=O)N/N=C/c2cc(C)c(O)c(C)c2)cc1OC` [Compound 36, N-[2-(4-Hydroxy-3,5-dimethyl-benzylidene-hydrazinocarbonyl)-phenyl]-3,4-dimethoxy-benzamide], for which the IC50 stood at 4.04 µM.
On to `CCOc1ccc(C(=O)Nc2ccc(Br)cc2C(=O)N/N=C/c2ccc(C)c(C)c2)cc1` [Compound 504, N-[4-Bromo-2-(3,4-dimethyl-benzylidene-hydrazinocarbonyl)-phenyl]-4-ethoxy-benzamide], for which the 50% inhibitory concentration (IC50) stood at 18.9 µM.
On to `CCN(CC)CCN(C)Cc1cccc(C(=O)Nc2ccc(N3CCSCC3)cc2C(=O)N/N=C/c2ccc(Cl)c(C(F)(F)F)c2)c1` [Compound 929, N-[2-(4-Chloro-3-trifluoromethyl-benzylidene-hydrazinocarbonyl)-4-thiomorpholin-4-yl-phenyl]-3-{[(2-diethylamino-ethyl)-methyl-amino]-methyl}-benzamide], for which the IC50 is less than 1 µM.
On to `CCN(CC)CCN(C)Cc1cccc(C(=O)Nc2sccc2C(=O)N/N=C/c2ccc(Cl)c(C(F)(F)F)c2)c1` [Compound 668, N-[3-(4-Chloro-3-trifluoromethyl-benzylidene-hydrazinocarbonyl)-thiophen-2-yl]-3-{[(2-diethylamino-ethyl)-methyl-amino]-methyl}-benzamide], for which the IC50 came out at 9.13 µM.
For the compound `O=C(Nc1ccc(Br)cc1C(=O)N/N=C/C=C/c1ccccc1)c1ccncc1` [Compound 347, N-[4-Bromo-2-(3-phenyl-allylidene-hydrazinocarbonyl)-phenyl]-isonicotinamide], the IC50 amounted to 4.91 µM.
For `CCN(CC)CCOc1ccc(NC(=O)c2cccc(CN(CC(C)O)CC(C)O)c2)c(C(=O)NN=Cc2ccc(C)c(C)c2)c1` (centres unmarked) [Compound 943, 3-{[Bis-(2-hydroxy-propyl)-amino]-methyl}-N-[4-(2-diethylamino-ethoxy)-2-(3,4-dimethyl-benzylidene-hydrazinocarbonyl)-phenyl]-benzamide], the IC50 worked out at 10.6 µM.
Turning to `CCN(CC)CCN(C)Cc1cccc(C(=O)Nc2scc(C)c2C(=O)N/N=C/c2cccc(F)c2)c1` [Compound 566, 3-{[(2-Diethylamino-ethyl)-methyl-amino]-methyl}-N-[3-(3-fluoro-benzylidene-hydrazinocarbonyl)-4-methyl-thiophen-2-yl]-benzamide], the IC50 was 14.6 µM.

The experiment is the same for the next values; noted with them: phosphate uptake, oocytes expressing rat NaPi-2b; 300 μM, determined from inhibition curve.
In turn, `O=C(Nc1ccc(Br)cc1C(=O)N/N=C/c1cccc(F)c1)c1ccc(CN2CCC(CCO)CC2)cc1` [Compound 744, N-[4-Bromo-2-(3-fluoro-benzylidene-hydrazinocarbonyl)-phenyl]-4-[4-(2-hydroxy-ethyl)-piperidin-1-ylmethyl]-benzamide] returned an inhibition at 300 µM of 83.7%.
The same measure, in the same setting: under `Cc1cccc(/C=N/NC(=O)c2cc(Cl)ccc2NC(=O)c2cccc(CSCc3ccco3)c2)c1` [Compound 699, N-[4-Chloro-2-(3-methyl-benzylidene-hydrazinocarbonyl)-phenyl]-3-(furan-2-ylmethylsulfanylmethyl)-benzamide] stands 58.4%; under `O=C(Nc1ccc(Br)cc1C(=O)N/N=C/c1ccc(F)cc1)c1ccc(CN2CCN(c3ccccn3)CC2)cc1` [Compound 774, N-[4-Bromo-2-(4-fluoro-benzylidene-hydrazinocarbonyl)-phenyl]-4-(4-pyridin-2-yl-piperazin-1-ylmethyl)-benzamide], 58.9%.
